Results from the NIST ThermoML archive (doi:10.1021/je700329a).
Where “and” joins values, the source holds several entries; their conditions need not be identical. Equal values may be shown once. ± gives the expanded uncertainty stated by the source.

Experiments:
[1] = wn = mass fraction of the nth substance listed; conditions: 101 kPa, Liquid; for electrical conductivity: Alternating current cell with electrodes; for kinematic viscosity: Capillary tube (Ostwald / Ubbelohde) method; for speed of sound: Pulse-echo method; for mass density: Vibrating tube method
[2] = 101.33 kPa, Liquid; for viscosity: Stabinger Viscometer; for mass density: Vibrating tube method; for speed of sound: DSA 5000; for electrical conductivity: Alternating current cell with electrodes

CCCCCC[n+]1ccn(C)c1.O=S(=O)([N-]S(=O)(=O)C(F)(F)F)C(F)(F)F + O
[1]
Conditions | electrical conductivity [S/m] | kinematic viscosity [m2/s] | mass density [kg/m3] | speed of sound [m/s]
288.15 K, w2 = 1e-05 | 0.135 ± 0.006 | – | – | –
288.15 K, w2 = 0.00094 | 0.142 ± 0.006 | – | – | –
293.15 K, w2 = 1e-05 | 0.173 ± 0.007 | – | – | –
293.15 K, w2 = 2e-05 | – | 6.53e-05 ± 1.5e-06 | – | –
293.15 K, w2 = 0.00094 | 0.18 ± 0.007 | – | – | –
293.15 K, w2 = 0.0011 | – | 6.16e-05 ± 1.3e-06 | – | –
293.15 K, w2 = 0.00727 | 0.232 ± 0.01 | – | – | –
293.15 K, w2 = 0.00784 | 0.237 ± 0.01 | – | – | –
293.15 K, w2 = 0.0082 | – | 4.55e-05 ± 1e-06 | – | –
293.15 K, w2 = 0.00898 | 0.246 ± 0.01 | – | – | –
298.15 K, w2 = 1e-05 | 0.218 ± 0.009 | 5.12e-05 ± 1.2e-06 | – | –
298.15 K, w2 = 2e-05 | – | 5.13e-05 ± 1.2e-06 | – | –
298.15 K, w2 = 3.5e-05 | – | – | 1372.07 ± 2 | 1226.6 ± 1.2
298.15 K, w2 = 0.00094 | 0.227 ± 0.009 | – | – | –
298.15 K, w2 = 0.00102 | – | – | 1370.45 ± 2 | –
298.15 K, w2 = 0.00106 | – | – | – | 1227.4 ± 1.2
298.15 K, w2 = 0.00112 | – | 4.85e-05 ± 1.1e-06 | – | –
298.15 K, w2 = 0.00722 | – | – | 1367.04 ± 2 | –
298.15 K, w2 = 0.00727 | 0.289 ± 0.012 | – | – | –
298.15 K, w2 = 0.007315 | – | – | – | 1230.3 ± 1.2
298.15 K, w2 = 0.00784 | 0.295 ± 0.012 | – | – | –
298.15 K, w2 = 0.00819 | – | 3.63e-05 ± 8.3e-07 | – | –
298.15 K, w2 = 0.00898 | 0.306 ± 0.012 | – | – | –
308.15 K, w2 = 1e-05 | 0.328 ± 0.013 | – | – | –
308.15 K, w2 = 0.00094 | 0.34 ± 0.014 | – | – | –
323.15 K, w2 = 1e-05 | 0.548 ± 0.022 | – | – | –
323.15 K, w2 = 0.00094 | 0.566 ± 0.023 | – | – | –

CCCCCC[n+]1ccn(C)c1.O=S(=O)([N-]S(=O)(=O)C(F)(F)F)C(F)(F)F
[2]
Conditions | electrical conductivity [S/m] | mass density | speed of sound | viscosity
258.15 K | – | 1407.6 ± 0.2 kg/m3 | – | 941.8 ± 19 mPa·s
263.15 K | – | 1403.1 ± 0.2 kg/m3 | – | 612.7 ± 12 mPa·s
268.15 K | – | 1398.5 ± 0.2 kg/m3 | – | 417.4 ± 8.5 mPa·s
273.15 K | – | 1394 ± 0.2 kg/m3 | – | 291.2 ± 5.9 mPa·s
278.15 K | – | 1389.5 ± 0.2 kg/m3 | – | 207.6 ± 4.2 mPa·s
283.15 K | – | 1385 ± 0.2 kg/m3 and 1385.9 ± 0.2 kg/m3 and 1386 ± 0.2 kg/m3 | 1262 ± 1 m/s and 1262.4 ± 1 m/s | 153.3 ± 3.1 mPa·s
288.15 K | 0.135 ± 0.006 | 1380.5 ± 0.2 kg/m3 | – | 115.8 ± 2.3 mPa·s
293.15 K | 0.173 ± 0.007 | 1376.7 ± 0.2 kg/m3 [middle of 4 runs] | 1238.4 ± 1 m/s and 1238.5 ± 1 m/s | 89.54 ± 1.8 mPa·s and 89.26 ± 1.8 mPa·s
298.15 K | 0.218 ± 0.009 | 1372.1 ± 0.2 kg/m3 [middle of 4 runs] | 1226.8 ± 1 m/s and 1226.9 ± 1 m/s | 70.09 ± 1.4 mPa·s and 70.29 ± 1.4 mPa·s
303.15 K | – | 1367.3 ± 0.2 kg/m3 and 1367.5 ± 0.2 kg/m3 and 1367.6 ± 0.2 kg/m3 | 1215.5 ± 1 m/s and 1215.6 ± 1 m/s | 56.11 ± 1.1 mPa·s
308.15 K | 0.328 ± 0.013 | – | – | –
313.15 K | – | 1358.3 ± 0.2 kg/m3 and 1358.4 ± 0.2 kg/m3 | 1193.3 ± 1 m/s and 1193.4 ± 1 m/s | 37.41 ± 0.75 mPa·s
323.15 K | 0.548 ± 0.022 | 1349.3 ± 0.2 kg/m3 and 1349.4 ± 0.2 kg/m3 | 1171.5 ± 1 m/s and 1171.6 ± 1 m/s | 26.25 ± 0.53 mPa·s
333.15 K | – | 1340.3 ± 0.2 kg/m3 and 1340.4 ± 0.2 kg/m3 | 1149.8 ± 1 m/s and 1150.4 ± 1 m/s | 19.22 ± 0.39 mPa·s
343.15 K | – | 1331.3 ± 0.2 kg/m3 and 1331.4 ± 0.2 kg/m3 | 1128.4 ± 1 m/s and 1129.6 ± 1 m/s | 14.58 ± 0.29 mPa·s
353.15 K | – | 1322.5 ± 0.2 kg/m3 | – | 11.38 ± 0.23 mPa·s
363.15 K | – | 1313.6 ± 0.2 kg/m3 | – | 9.128 ± 0.18 mPa·s
373.15 K | – | 1304.8 ± 0.2 kg/m3 | – | 7.463 ± 0.15 mPa·s
